pIC50: −log10 of the molar value.
Each compound was assayed against T1, HCV1b NS5B polymerase delta 21 (Hepatitis C virus genotype 1b, UniProt P26663) (assay: RNA-Dependent RNA HCV NS5B (Polymerase) Assay and IC50 Determination).
T1 construct: purified HCV1b NS5B polymerase delta 21
Assay type: biochemical
Method: RNA-Dependent RNA HCV NS5B (Polymerase) Assay and IC50 Determination
In vitro RNA-dependent RNA polymerase activity was determined in a reaction mixture (50 μL) containing 50 mM Tris-HCl, pH 7.5, 5 mM MgCl2, 1 mM dithiothreitol, 0.5% Triton® X-100, 10 μM of UTP, 0.1-0.5 μCi of α-^32P UTP (Perkin Elmer Life Sciences), 1 μg of polyA:U16 (Midland Oligo), and 0.6 μg of purified HCV1b NS5B polymerase delta 21. Different concentrations of compounds were added to the reaction mixtures. The reaction was carried out at RT (23° C.) for 60 min and then stopped by the addition of 100 μL of 50 mM EDTA. The reaction mixtures were filtered through either a DE81 membrane or a positively charged nylon membrane, and the membranes were then extensively washed with 30 mM sodium citrate, pH 7.0 and 300 mM NaCl. The radiolabeled RNA products were quantitated using a Storm™ Phosphorlmager™ (GE Life Sciences). IC50 values were calculated using GraFit 6 and GraphPad Prism 5 from triplicate assays.

T1 sequence (P26663 2420-2989): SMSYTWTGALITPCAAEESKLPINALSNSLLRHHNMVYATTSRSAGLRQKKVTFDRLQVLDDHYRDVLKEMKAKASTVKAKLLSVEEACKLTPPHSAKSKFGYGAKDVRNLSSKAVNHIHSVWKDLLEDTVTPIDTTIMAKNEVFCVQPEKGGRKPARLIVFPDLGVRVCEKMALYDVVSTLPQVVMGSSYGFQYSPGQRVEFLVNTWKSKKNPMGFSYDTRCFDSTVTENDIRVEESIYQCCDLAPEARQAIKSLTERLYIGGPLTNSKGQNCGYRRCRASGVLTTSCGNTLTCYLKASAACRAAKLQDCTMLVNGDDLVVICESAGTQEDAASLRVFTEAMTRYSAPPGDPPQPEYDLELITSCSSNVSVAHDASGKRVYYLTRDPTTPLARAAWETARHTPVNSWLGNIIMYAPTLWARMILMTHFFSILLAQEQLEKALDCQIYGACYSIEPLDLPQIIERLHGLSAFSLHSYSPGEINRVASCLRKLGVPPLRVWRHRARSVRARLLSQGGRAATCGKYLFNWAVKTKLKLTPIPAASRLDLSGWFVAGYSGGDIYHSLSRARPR

| SMILES | pIC50 |
| --- | --- |
| CCN1CCC(c2cc(C#CCOC)sc2C(=O)O)=C(C2CCC(C)CC2)C1 (stereo not shown) [Example 034, 3-[1-Ethyl-5-(4-methyl-cyclohexyl)-1,2,3,6-tetrahydro-pyridin-4-yl]-5-(3-methoxy-prop-1-ynyl)-thiophene-2-carboxylic acid] | > 5.52 |
| CCN1CCC(c2cc(-c3ccc(C(=O)O)cc3)sc2C(=O)O)=C(C2CCC(C)CC2)C1 (stereo not shown) [Example 035, 5-(4-Carboxy-phenyl)-3-[1-ethyl-5-(4-methyl-cyclohexyl)-1,2,3,6-tetrahydro-pyridin-4-yl]-thiophene-2-carboxylic acid] | > 5.52 |
| Cc1ccc(S(=O)(=O)N2CCC(c3cc(-c4ccccc4)sc3C(=O)O)=C(C3CCC(C)CC3)C2)cc1 (stereo not shown) [Example 036, 3-[5-(4-Methyl-cyclohexyl)-1-(toluene-4-sulfonyl)-1,2,3,6-tetrahydro-pyridin-4-yl]-5-phenyl-thiophene-2-carboxylic acid] | < 5.00 |
| CC1CCC(C2=C(c3cc(-c4ccccc4)sc3C(=O)O)CCN(C(=O)OC(C)(C)C)C2)CC1 (stereo not shown) [Example 037, 4-(2-Carboxy-5-phenyl-thiophen-3-yl)-5-(4-methyl-cyclohexyl)-3,6-dihydro-2H-pyridine-1-carboxylic acid tert-butyl ester] | < 5.00 |
| CCOC(=O)N1CCC(c2cc(-c3ccccc3)sc2C(=O)O)=C(C2CCC(C)CC2)C1 (stereo not shown) [Example 038, 4-(2-Carboxy-5-phenyl-thiophen-3-yl)-5-(4-methyl-cyclohexyl)-3,6-dihydro-2H-pyridine-1-carboxylic acid ethyl ester] | < 5.00 |
| CC1CCC(C2=C(c3cc(-c4ccccc4)sc3C(=O)O)CCN(S(C)(=O)=O)C2)CC1 (stereo not shown) [Example 039, 3-[1-Methanesulfonyl-5-(4-methyl-cyclohexyl)-1,2,3,6-tetrahydro-pyridin-4-yl]-5-phenyl-thiophene-2-carboxylic acid] | < 5.00 |
| CC1CCC(C2=C(c3cc(-c4ccccc4)sc3C(=O)O)CCNC2)CC1 (stereo not shown) [Example 040, 3-[5-(4-Methyl-cyclohexyl)-1,2,3,6-tetrahydro-pyridin-4-yl]-5-phenyl-thiophene-2-carboxylic acid] | > 5.52 |
| CC1CCC(C2=C(c3cc(-c4ccccc4)sc3C(=O)O)CN(C)CC2)CC1 (stereo not shown) [Example 041, 3-[1-Methyl-4-(4-methyl-cyclohexyl)-1,2,5,6-tetrahydro-pyridin-3-yl]-5-phenyl-thiophene-2-carboxylic acid] | > 5.52 |
| CC1CCC(C2=C(c3cc(-c4ccc(NC(=O)c5ccccn5)cc4)sc3C(=O)O)CCN(C)C2)CC1 (stereo not shown) [Example 042, 3-[1-Methyl-5-(4-methyl-cyclohexyl)-1,2,3,6-tetrahydro-pyridin-4-yl]-5-{4-[(pyridine-2-carbonyl)-amino]-phenyl}-thiophene-2-carboxylic acid] | > 5.52 |
| CC1CCC(C2=C(c3cc(-c4ccccc4)sc3C(=O)O)CCN(Cc3ccccc3)C2)CC1 (stereo not shown) [Example 043, 3-[1-Benzyl-5-(4-methyl-cyclohexyl)-1,2,3,6-tetrahydro-pyridin-4-yl]-5-phenyl-thiophene-2-carboxylic acid] | 5.00 to 5.52 |
| CCN1CCC(c2cc(-c3ccccc3)sc2C(=O)O)=C(C2CCC(C)CC2)C1 (stereo not shown) [Example 044, 3-[1-Ethyl-5-(4-methyl-cyclohexyl)-1,2,3,6-tetrahydro-pyridin-4-yl]-5-phenyl-thiophene-2-carboxylic acid] | > 5.52 |
| CC1CCC(C2=C(c3cc(-c4ccccc4)sc3C(=O)O)CCN(C(=O)c3cnccn3)C2)CC1 (stereo not shown) [Example 045, 3-[5-(4-Methyl-cyclohexyl)-1-(pyrazine-2-carbonyl)-1,2,3,6-tetrahydro-pyridin-4-yl]-5-phenyl-thiophene-2-carboxylic acid] | > 5.52 |
| CN1CCC(c2cc(C#CC(C)(C)C)sc2C(=O)O)=C([C@H]2CC[C@H](C)CC2)C1 [Example 046, 5-(3,3-Dimethyl-but-1-ynyl)-3-[1-methyl-5-(4-methyl-cyclohexyl)-1,2,3,6-tetrahydro-pyridin-4-yl]-thiophene-2-carboxylic acid] | > 5.52 |
| CN1CCC(c2cc(-c3ccc(NC(=O)c4cscn4)cc3)sc2C(=O)O)=C([C@H]2CC[C@H](C)CC2)C1 [Example 047, 3-[1-Methyl-5-(4-methyl-cyclohexyl)-1,2,3,6-tetrahydro-pyridin-4-yl]-5-{4-[(thiazole-4-carbonyl)-amino]-phenyl}-thiophene-2-carboxylic acid] | > 5.52 |
| CCN1CCC(c2cc(-c3ccc(NC(=O)c4csc(C)n4)cc3)sc2C(=O)O)=C(C2CCC(C)CC2)C1 (stereo not shown) [Example 048, 3-[1-Ethyl-5-(4-methyl-cyclohexyl)-1,2,3,6-tetrahydro-pyridin-4-yl]-5-{4-[(2-methyl-thiazole-4-carbonyl)-amino]-phenyl}-thiophene-2-carboxylic acid] | > 5.52 |
| CCN1CCC(c2cc(-c3ccc(NC(=O)c4ccsc4)cc3)sc2C(=O)O)=C(C2CCC(C)CC2)C1 (stereo not shown) [Example 049, 3-[1-Ethyl-5-(4-methyl-cyclohexyl)-1,2,3,6-tetrahydro-pyridin-4-yl]-5-{4-[(thiophene-3-carbonyl)-amino]-phenyl}-thiophene-2-carboxylic acid] | > 5.52 |
| CCN1CCC(c2cc(-c3ccc(NC(=O)c4cncs4)cc3)sc2C(=O)O)=C(C2CCC(C)CC2)C1 (stereo not shown) [Example 050, 3-[1-Ethyl-5-(4-methyl-cyclohexyl)-1,2,3,6-tetrahydro-pyridin-4-yl]-5-{4-[(thiazole-5-carbonyl)-amino]-phenyl}-thiophene-2-carboxylic acid] | 5.00 to 5.52 |
| CCN1CCC(c2cc(-c3ccc(NC(=O)c4cc(C)n(C)n4)cc3)sc2C(=O)O)=C(C2CCC(C)CC2)C1 (stereo not shown) [Example 051, 5-{4-[(1,5-Dimethyl-1H-pyrazole-3-carbonyl)-amino]-phenyl}-3-[1-ethyl-5-(4-methyl-cyclohexyl)-1,2,3,6-tetrahydro-pyridin-4-yl]-thiophene-2-carboxylic acid] | > 5.52 |
| CCN1CCC(c2cc(-c3ccc(NC(=O)c4cocn4)cc3)sc2C(=O)O)=C(C2CCC(C)CC2)C1 (stereo not shown) [Example 052, 3-[1-Ethyl-5-(4-methyl-cyclohexyl)-1,2,3,6-tetrahydro-pyridin-4-yl]-5-{4-[(oxazole-4-carbonyl)-amino]-phenyl}-thiophene-2-carboxylic acid] | > 5.52 |
| CCN1CCC(c2cc(-c3ccc(NC(=O)c4cc(C)on4)cc3)sc2C(=O)O)=C(C2CCC(C)CC2)C1 (stereo not shown) [Example 053, 3-[1-Ethyl-5-(4-methyl-cyclohexyl)-1,2,3,6-tetrahydro-pyridin-4-yl]-5-{4-[(5-methyl-isoxazole-3-carbonyl)-amino]-phenyl}-thiophene-2-carboxylic acid] | 5.00 to 5.52 |
| CCN1CCC(c2cc(-c3ccc(NC(=O)c4ccco4)cc3)sc2C(=O)O)=C(C2CCC(C)CC2)C1 (stereo not shown) [Example 054, 3-[1-Ethyl-5-(4-methyl-cyclohexyl)-1,2,3,6-tetrahydro-pyridin-4-yl]-5-{4-[(furan-2-carbonyl)-amino]-phenyl}-thiophene-2-carboxylic acid] | > 5.52 |
| CCN1CCC(c2cc(-c3ccc(NC(=O)c4cc[nH]n4)cc3)sc2C(=O)O)=C(C2CCC(C)CC2)C1 (stereo not shown) [Example 055, 3-[1-Ethyl-5-(4-methyl-cyclohexyl)-1,2,3,6-tetrahydro-pyridin-4-yl]-5-{4-[(1H-pyrazole-3-carbonyl)-amino]-phenyl}-thiophene-2-carboxylic acid] | > 5.52 |
| CCN1CCC(c2cc(-c3ccc(NC(=O)c4cn[nH]c4)cc3)sc2C(=O)O)=C(C2CCC(C)CC2)C1 (stereo not shown) [Example 056, 3-[1-Ethyl-5-(4-methyl-cyclohexyl)-1,2,3,6-tetrahydro-pyridin-4-yl]-5-{4-[(1H-pyrazole-4-carbonyl)-amino]-phenyl}-thiophene-2-carboxylic acid] | 5.00 to 5.52 |
| CCN1CCC(c2cc(-c3ccc(NC(=O)c4cn(C)cn4)cc3)sc2C(=O)O)=C(C2CCC(C)CC2)C1 (stereo not shown) [Example 057, 3-[1-Ethyl-5-(4-methyl-cyclohexyl)-1,2,3,6-tetrahydro-pyridin-4-yl]-5-{4-[(1-methyl-1H-imidazole-4-carbonyl)-amino]-phenyl}-thiophene-2-carboxylic acid] | > 5.52 |
| CCN1CCC(c2cc(-c3ccc(NC(=O)C4CCCO4)cc3)sc2C(=O)O)=C(C2CCC(C)CC2)C1 (stereo not shown) [Example 058, 3-[1-Ethyl-5-(4-methyl-cyclohexyl)-1,2,3,6-tetrahydro-pyridin-4-yl]-5-{4-[(tetrahydro-furan-2-carbonyl)-amino]-phenyl}-thiophene-2-carboxylic acid] | > 5.52 |
| CC1CCC(C2=C(c3cc(-c4ccc(NC(=O)c5cscn5)c(F)c4)sc3C(=O)O)CCN(C)C2)CC1 (stereo not shown) [Example 059, 5-{3-Fluoro-4-[(thiazole-4-carbonyl)-amino]-phenyl}-3-[1-methyl-5-(4-methyl-cyclohexyl)-1,2,3,6-tetrahydro-pyridin-4-yl]-thiophene-2-carboxylic acid] | > 5.52 |
| CC1CCC(C2=C(c3cc(-c4ccc(NC(=O)c5cscn5)cc4F)sc3C(=O)O)CCN(C)C2)CC1 (stereo not shown) [Example 060, 5-{2-Fluoro-4-[(thiazole-4-carbonyl)-amino]-phenyl}-3-[1-methyl-5-(4-methyl-cyclohexyl)-1,2,3,6-tetrahydro-pyridin-4-yl]-thiophene-2-carboxylic acid] | > 5.52 |
| CCN1CCC(c2cc(-c3ccc(NCc4cscn4)cc3)sc2C(=O)O)=C(C2CCC(C)CC2)C1 (stereo not shown) [Example 061, 3-[1-Ethyl-5-(4-methyl-cyclohexyl)-1,2,3,6-tetrahydro-pyridin-4-yl]-5-{4-[(thiazol-4-ylmethyl)-amino]-phenyl}-thiophene-2-carboxylic acid] | < 5.00 |
